The target in this assay is T1, viral kinase pUL-97 (Human cytomegalovirus, UniProt P16788).
T1 construct: The pUL-97 gene was cloned into a baculovirus vector; GST (glutathione S-transferase) (N); made in house; host or cells: Sf9 insect cells, baculovirus
The assay is described as follows: UL97 kinase assay on Immobilon plate. Format: biochemical. The settings on record: inhibition of UL 97 kinase activity, read-out: Activity Class [A, B, C]. The gist of the method:
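Compound was titrated into a radiometric reaction of Sf9-expressed GST-UL97 kinase, incubated 1 h at 30 °C in Tris-HCl pH 7.5/MnCl2/DTT buffer before EDTA stop. MBP substrate and ATP (3 μM in the added assay buffer) were supplied with γ-[33P]ATP. Labelled product bound to Immobilon filter was washed and counted by scintillation.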

Where [1] appears, read: class by IC50 / % inhibition at 10 or 100 μM.
The mark [2] stands for this setting: class by IC50 / % inhibition at 10 μM or 100 μM.

For 39 compounds, IC50 results are on record in patent US20080194574A1, “Pyrazine Derivatives As Effective Compounds Against Infectious Diseases” (AXXIMA PHARMACEUTICALS AG, priority 2003, published 2008).

Read-outs that look alike come from different tables or passages of the source. Some results are limits rather than exact numbers.

T1 sequence (P16788 whole entry): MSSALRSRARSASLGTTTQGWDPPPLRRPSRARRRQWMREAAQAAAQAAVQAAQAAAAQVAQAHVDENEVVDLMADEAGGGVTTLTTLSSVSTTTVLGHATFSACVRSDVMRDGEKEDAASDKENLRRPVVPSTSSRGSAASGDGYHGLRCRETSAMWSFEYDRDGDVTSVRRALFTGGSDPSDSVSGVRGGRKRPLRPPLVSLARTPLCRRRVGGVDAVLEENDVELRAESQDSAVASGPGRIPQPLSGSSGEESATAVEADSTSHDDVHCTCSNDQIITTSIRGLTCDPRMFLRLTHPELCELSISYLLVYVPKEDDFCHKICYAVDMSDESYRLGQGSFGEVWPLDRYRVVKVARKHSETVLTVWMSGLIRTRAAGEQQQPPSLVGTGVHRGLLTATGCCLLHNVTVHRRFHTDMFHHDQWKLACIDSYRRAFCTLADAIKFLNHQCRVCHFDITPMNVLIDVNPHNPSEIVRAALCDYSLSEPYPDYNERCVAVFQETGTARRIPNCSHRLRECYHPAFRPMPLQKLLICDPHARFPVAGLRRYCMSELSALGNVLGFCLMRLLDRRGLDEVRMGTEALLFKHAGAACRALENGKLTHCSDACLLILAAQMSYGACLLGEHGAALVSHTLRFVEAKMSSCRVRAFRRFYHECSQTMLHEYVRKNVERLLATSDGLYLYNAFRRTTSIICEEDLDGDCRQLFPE

As to `OCc1cccc(-c2cncc(N3CCN(c4ccncc4)CC3)n2)c1` [compound 52, [3-(4-Pyridin-4-yl-3,4,5,6-tetrahydro-2H-[1,2′]bipyrazinyl-6′-yl)-phenyl]-methanol], the IC50 under setting [1] was 10 to 100 µM.

On to `COc1ccc(N2CCN(c3cncc(-c4ccc(C(N)=O)cc4)n3)CC2)cc1` [compound 290, 4-[4-(4-Methoxy-phenyl)-3,4,5,6-tetrahydro-2H-[1,2′]bipyrazinyl-6′-yl]-benzamide], for which the IC50 under setting [2] was below 1 µM.

Regarding `Clc1ccc(-c2cncc(N3CCN(c4ccncc4)CC3)n2)cc1` [compound 47, 6′-(4-Chloro-phenyl)-4-pyridin-4-yl-3,4,5,6-tetrahydro-2H-[1,2′]bipyrazinyl], the IC50 under setting [1] lay in the range of 1 to 10 µM.

Turning to `COc1ccc(N2CCN(c3cncc(-c4ccc(C(F)(F)F)cc4)n3)CC2)cc1OC` [compound 172, 4-(3,4-Dimethoxy-phenyl)-6′-(4-trifluoromethyl-phenyl)-3,4,5,6-tetrahydro-2H-[1,2′]bipyrazinyl], under setting [1], the IC50 lay in the range of 1 to 10 µM.

With `CC(=O)c1ccccc1-c1cncc(N2CCN(c3ccncc3)CC2)n1` [compound 218, 1-[2-(4-Pyridin-4-yl-3,4,5,6-tetrahydro-2H-[1,2′]bipyrazinyl-6′-yl)-phenyl]-ethanone], under setting [2], the IC50 lay in the range of 10 to 100 µM.

Turning to `Cc1cc(C)cc(-c2cncc(N3CCN(c4cnccn4)CC3)n2)c1` [compound 344, 6-(3,5-Dimethyl-phenyl)-2′,3′,5′,6′-tetrahydro-[2,1′;4′,2″]terpyrazine], the IC50 under setting [2] lay within 10 to 100 µM.

With `Cc1ccc(N2CCN(c3cncc(-c4csc5ccccc45)n3)CC2)cc1` [compound 231, 6′-Benzo[b]thiophen-3-yl-4-p-tolyl-3,4,5,6-tetrahydro-2H-[1,2′]bipyrazinyl], under setting [2], the IC50 was in the range of 10 to 100 µM.

As for `Fc1cccc(-c2cncc(N3CCN(c4ccccn4)CC3)n2)c1` [compound 56, 6′-(3-Fluoro-phenyl)-4-pyridin-2-yl-3,4,5,6-tetrahydro-2H-[1,2′]bipyrazinyl], the IC50 under setting [1] lay within 10 to 100 µM.

Regarding `Clc1cccc(N2CCN(c3cncc(-c4ccccc4)n3)CC2)c1` [compound 97, 4-(3-Chloro-phenyl)-6′-phenyl-3,4,5,6-tetrahydro-2H-[1,2′]bipyrazinyl], the IC50 under setting [1] is 1 to 10 µM.

As for `COc1ccc(-c2cncc(N3CCN(c4ccccc4OC)CC3)n2)cc1OC` [compound 107, 6′-(3,4-Dimethoxy-phenyl)-4-(2-methoxy-phenyl)-3,4,5,6-tetrahydro-2H-[1,2′]bipyrazinyl], the IC50 under setting [1] lay in the range of 1 to 10 µM.

`Fc1ccccc1N1CCN(c2cncc(-c3ccc4ccccc4c3)n2)CC1` [compound 123, 4-(2-Fluoro-phenyl)-6′-naphthalen-2-yl-3,4,5,6-tetrahydro-2H-[1,2′]bipyrazinyl]: the IC50 under setting [1] fell in the range of 1 to 10 µM.

Turning to `COc1cccc(-c2cncc(N3CCN(c4cccc(OC)c4)CC3)n2)c1` [compound 366, 4,6′-Bis-(3-methoxy-phenyl)-3,4,5,6-tetrahydro-2H-[1,2′]bipyrazinyl], the IC50 under setting [2] was in the range of 1 to 10 µM.

With `Cc1cccc(N2CCN(c3cncc(-c4ccc5ccccc5c4)n3)CC2C)c1` (stereo not drawn) [compound 347, 3-Methyl-6′-naphthalen-2-yl-4-m-tolyl-3,4,5,6-tetrahydro-2H-[1,2′]bipyrazinyl], the IC50 under setting [2] fell in the range of 10 to 100 µM.

On to `CN(C)c1ccc(-c2cncc(N3CCN(c4ccccc4)CC3)n2)cc1` [compound 190, Dimethyl-[4-(4-phenyl-3,4,5,6-tetrahydro-2H-[1,2′]bipyrazinyl-6′-yl)-phenyl]-amine], for which, under setting [1], the IC50 was 1 to 10 µM.

For `Clc1ccc(N2CCN(c3cncc(-c4ccc5ccccc5c4)n3)CC2)cc1` [compound 348, 4-(4-Chloro-phenyl)-6′-naphthalen-2-yl-3,4,5,6-tetrahydro-2H-[1,2′]bipyrazinyl], under setting [2], the IC50 was in the range of 1 to 10 µM.

As to `Fc1cc(-c2cncc(N3CCN(c4ccccc4)CC3)n2)ccc1-c1ccccc1` [compound 96, 6′-(2-Fluoro-biphenyl-4-yl)-4-phenyl-3,4,5,6-tetrahydro-2H-[1,2′]bipyrazinyl], the IC50 under setting [1] lay within 10 to 100 µM.

As for `Cc1ccc(-c2cncc(N3CCN(c4cccc(Cl)c4)CC3)n2)cc1` [compound 237, 4-(3-Chloro-phenyl)-6′-p-tolyl-3,4,5,6-tetrahydro-2H-[1,2′]bipyrazinyl], the IC50 under setting [2] lay in the range of 10 to 100 µM.

For `Clc1ccc(-c2cncc(N3CCN(c4ccccn4)CC3)n2)cc1` [compound 14, 6′-(4-Chloro-phenyl)-4-pyridin-2-yl-3,4,5,6-tetrahydro-2H-[1,2′]bipyrazinyl], the IC50 under setting [1] is 10 to 100 µM.

Take `Cc1ccc(N2CCN(c3cncc(-c4cccc(C)c4)n3)CC2)cc1` [compound 228, 6′-m-Tolyl-4-p-tolyl-3,4,5,6-tetrahydro-2H-[1,2′]bipyrazinyl]: the IC50 under setting [2] was in the range of 10 to 100 µM.

Turning to `CC(=O)c1ccc(N2CCN(c3cncc(-c4cccc(C)c4C)n3)CC2)cc1` [compound 150], the IC50 under setting [1] was in the range of 10 to 100 µM.

`OCc1ccc(-c2cncc(N3CCN(c4ccccn4)CC3)n2)cc1` [compound 351, [4-(4-Pyridin-2-yl-3,4,5,6-tetrahydro-2H-[1,2′]bipyrazinyl-6′-yl)-phenyl]-methanol]: the IC50 under setting [2] was 1 to 10 µM.

With `NCc1ccc(-c2cncc(N3CCN(C(=O)c4ccco4)CC3)n2)cc1` [compound 59, [6′-(4-Aminomethyl-phenyl)-2,3,5,6-tetrahydro-[1,2′]bipyrazinyl-4-yl]-furan-2-yl-methanone], the IC50 under setting [1] lay in the range of 10 to 100 µM.

As to `CCOc1ccc(-c2cncc(N3CCN(c4ccc(C(C)=O)cc4)CC3)n2)cc1` [compound 207, 1-{4-[6′-(4-Ethoxy-phenyl)-2,3,5,6-tetrahydro-[1,2′]bipyrazinyl-4-yl]-phenyl}-ethanone], the IC50 under setting [2] is 10 to 100 µM.

`COc1cccc(N2CCN(c3cncc(-c4cc5ccccc5o4)n3)CC2)c1` [compound 285, 6′-Benzofuran-2-yl-4-(3-methoxy-phenyl)-3,4,5,6-tetrahydro-2H-[1,2′]bipyrazinyl]: under setting [2], the IC50 is 1 to 10 µM.

For `FC(F)(F)c1cc(-c2cncc(N3CCN(c4ccncc4)CC3)n2)cc(C(F)(F)F)c1` [compound 164, 6′-(3,5-Bis-trifluoromethyl-phenyl)-4-pyridin-4-yl-3,4,5,6-tetrahydro-2H-[1,2′]bipyrazinyl], under setting [1], the IC50 was in the range of 10 to 100 µM.

For `Cc1ccc(N2CCN(c3cncc(-c4ccc(C(F)(F)F)cc4)n3)CC2)c(C)c1` [compound 354, 4-(2,4-Dimethyl-phenyl)-6′-(4-trifluoromethyl-phenyl)-3,4,5,6-tetrahydro-2H-[1,2′]bipyrazinyl], the IC50 under setting [2] was in the range of 10 to 100 µM.

Take `CC(=O)c1cccc(-c2cncc(N3CCN(c4ccccc4F)CC3)n2)c1` [compound 115, 1-{3-[4-(2-Fluoro-phenyl)-3,4,5,6-tetrahydro-2H-[1,2′]bipyrazinyl-6′-yl]-phenyl}-ethanone]: the IC50 under setting [1] was 1 to 10 µM.

For the compound `c1ccc(C2CCN(c3cncc(-c4csc5ccccc45)n3)CC2)cc1` [compound 319, 2-Benzo[b]thiophen-3-yl-6-(4-phenyl-piperidin-1-yl)-pyrazine], under setting [2], the IC50 lay in the range of 10 to 100 µM.

Consider `CC(=O)c1ccc(-c2cncc(N3CCN(c4cccc(C)c4C)CC3)n2)s1` [compound 296, 1-{5-[4-(2,3-Dimethyl-phenyl)-3,4,5,6-tetrahydro-2H-[1,2′]bipyrazinyl-6′-yl]-thiophen-2-yl}-ethanone], for which the IC50 under setting [2] was 10 to 100 µM.

`COc1ccc(N2CCN(c3cncc(-c4ccc(F)cc4)n3)CC2)cc1` [compound 363, 6′-(4-Fluoro-phenyl)-4-(4-methoxy-phenyl)-3,4,5,6-tetrahydro-2H-[1,2′]bipyrazinyl]: under setting [2], the IC50 was 1 to 10 µM.

Consider `NC(=O)c1ccc(-c2cnc(N)c(N3CCN(c4ccncc4)CC3)n2)cc1` [compound 74, 4-(3′-Amino-4-pyridin-4-yl-3,4,5,6-tetrahydro-2H-[1,2′]bipyrazinyl-6′-yl)-benzamide], for which the IC50 under setting [1] lay within 1 to 10 µM.

`OCc1ccc(-c2cncc(N3CCN(c4ccc(Cl)c(Cl)c4)CC3)n2)cc1` [compound 315, {4-[4-(3,4-Dichloro-phenyl)-3,4,5,6-tetrahydro-2H-[1,2′]bipyrazinyl-6′-yl]-phenyl}-methanol]: under setting [2], the IC50 lay within 1 to 10 µM.

With `CSc1ccc(-c2cncc(N3CCN(c4ccccc4)CC3)n2)cc1` [compound 120, 6′-(4-Methylsulfanyl-phenyl)-4-phenyl-3,4,5,6-tetrahydro-2H-[1,2′]bipyrazinyl], under setting [1], the IC50 was in the range of 1 to 10 µM.

For `COc1ccc(-c2cncc(N3CCN(c4ccccn4)CC3)n2)cc1OC` [compound 306, 6′-(3,4-Dimethoxy-phenyl)-4-pyridin-2-yl-3,4,5,6-tetrahydro-2H-[1,2′]bipyrazinyl], the IC50 under setting [2] lay within 1 to 10 µM.

As to “6′-Benzo[b]thiophen-2-yl-4-pyridin-4-yl-3,4,5,6-tetrahydro-2H-[1,2′]bipyrazinyl [compound 69]”, the IC50 under setting [1] was below 1 µM.

Regarding `COc1ccc(N2CCN(c3cncc(-c4ccccc4Oc4ccccc4)n3)CC2)cc1OC` [compound 174, 4-(3,4-Dimethoxy-phenyl)-6′-(2-phenoxy-phenyl)-3,4,5,6-tetrahydro-2H-[1,2′]bipyrazinyl], the IC50 under setting [1] was in the range of 10 to 100 µM.

With `COc1ccc(-c2cncc(N3CCN(c4ccncc4)CC3)n2)cc1OC` [compound 77, 6′-(3,4-Dimethoxy-phenyl)-4-pyridin-4-yl-3,4,5,6-tetrahydro-2H-[1,2′]bipyrazinyl], under setting [1], the IC50 was below 1 µM.

For the compound `c1ccc(Oc2ccc(-c3cncc(N4CCN(c5ccccc5)CC4)n3)cc2)cc1` [compound 189, 6′-(4-Phenoxy-phenyl)-4-phenyl-3,4,5,6-tetrahydro-2H-[1,2′]bipyrazinyl], the IC50 under setting [1] was 10 to 100 µM.

Regarding `Fc1ccc(-c2cncc(N3CCN(c4ccc(F)cc4)CC3)n2)cc1` [compound 138, 4,6′-Bis-(4-fluoro-phenyl)-3,4,5,6-tetrahydro-2H-[1,2′]bipyrazinyl], the IC50 under setting [1] was in the range of 10 to 100 µM.
